Source: patent EP4707280A1, “1,4-CINEOLE DERIVATIVE AND INTERMEDIATE THEREOF, HERBICIDE CONTAINING SAID DERIVATIVE AS ACTIVE INGREDIENT, METHOD FOR USING HERBICIDE, AND METHOD FOR PREPARING AGROCHEMICAL COMPOSITION” (HOKKO CHEMICAL INDUSTRY CO., LTD., priority 2023, dated 2024)

Tested on: Chenopodium album
Assay: Test Example 7: herbicidal effect test by soil application in upland field (low dose)
Type: in vivo
Conditions: 7.5 g per 10 ares, sprayed one day after sowing, 14 days after application, read-out: weed inhibition rate
Procedure, shortened: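 Upland soil (alluvial loam) pots, seeds mixed into top 1 cm layer → EC formulation diluted with water, sprayed onto soil 1 d post-sowing, 100 L/10 a → 7.5 g a.i./10 a → inhibition (%) scored at 14 d, n=2.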

| Structure (SMILES) | inhibition at 75 g/ha [%] |
| --- | --- |
| C=C1C[C@]2(C)O[C@@]1(C(C)C)C[C@H]2OCc1ccccc1F [2-88, (1R,4S,5R)-5-((2-fluorobenzyl)oxy)-1-isopropyl-4-methyl-2-methylene-7-oxabicyclo[2.2.1]heptane] | ≥ 80 |
| C=CCO[C@@H]1C[C@]2(C)O[C@@]1(C(C)C)C[C@H]2OCc1ccccc1F [1-930, (1S,2R,4R,5R)-2-[(2-fluorophenyl)methoxy]-1-methyl-4-isopropyl-5-prop-2-enoxy-7-oxabicyclo[2.2.1]heptane] | ≥ 80 |
| CC(C)[C@]12C[C@@H](OCc3c(F)cccc3F)[C@](C)(C[C@@H]1F)O2 [1-7, (1S,2R,4R,5S)-2-((2,6-difluorobenzyl)oxy)-5-fluoro-4-isopropyl-1-methyl-7-oxabicyclo[2.2.1]heptane] | ≥ 80 |
| C=C1C[C@]2(C)O[C@@]1(C(C)C)C[C@H]2OCc1ccccc1C [2-72, (1R,4S,5R)-1-isopropyl-4-methyl-5-((2-methylbenzyl)oxy)-2-methylene-7-oxabicyclo[2.2.1]heptane] | ≥ 80 |
| CC(C)[C@]12C[C@@H](OCc3ccccc3F)[C@](C)(CC1OCC1CC1)O2 (mixture of isomers) [1-921, (1S,2R,4R,SR)-5-(cyclopropylmethoxy)-2-[(2-fluorophenyl)methoxy]-1-methyl-4-isopropyl-7-oxabicyclo[2.2.1]heptane] | ≥ 80 |
